# Read-outs that look alike come from different tables or passages of the source.
# Assays:
# [1] = system: SKBR3 cells; assay: SKBR3 Cell Viability Assay; format: cell-based; conditions: CellTiter Glo, read-out: MCL1 CV SKBR3 EC50
# Outline: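 Viability was measured by CellTiter-Glo luminescence after 72 h at 37° C, 5% CO2. Each well held 6,000 SKBR3 cells in McCoy's 5A/10% FBS dispensed onto serially diluted compound. Percent inhibition is relative to DMSO and 10 μM puromycin controls.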
# [2] = molecular target: MCL1/Bim (Homo sapiens (Human), UniProt Q07820); assay: MCL1/Bim Binding AlphaLISA Assay; conditions: recombinant human 6xHis-MCL1 (171-327), biotinylated Bim peptide (51-76)
# Outline: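 AlphaLISA with 0.0625 nM human 6×His-MCL1 (171-327) and 0.0625 nM biotinylated Bim (51-76) peptide in 20 mM Hepes pH 7.5, 150 mM NaCl, 0.002% Brij 35, 1 mM DTT, 0.01% BSA. Compound preincubated with MCL1 1 h, Bim added 2 h, then acceptor and donor beads 1 h each; % inhibition versus DMSO and no-protein/peptide controls.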
# [3] = Homo sapiens, SK-BR-3, 72 hours
# Chain of MCL1/Bim (Q07820 171-327): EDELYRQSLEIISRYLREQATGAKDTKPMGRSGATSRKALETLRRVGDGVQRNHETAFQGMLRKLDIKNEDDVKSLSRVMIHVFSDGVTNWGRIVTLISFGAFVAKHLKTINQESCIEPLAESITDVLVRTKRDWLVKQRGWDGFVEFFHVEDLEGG
Compound,"EC50 [1, 3] [nM]",IC50 [2] [nM],EC50 ([1]; 72 hours) [nM]
CO[C@H]1/C=C/C[C@H](C)C[S@@](=O)(NC(=O)c2cnn(C)c2)=NC(=O)c2ccc3c(n2)N(C[C@@H]2CC[C@H]21)C[C@@]1(CCCc2cc(Cl)ccc21)CO3 [Example 185],17.2,0.04,
C[C@@H]1[C@@H](C)C/C=C/[C@H](O)[C@@H]2CC[C@H]2CN2C[C@@]3(CCCc4cc(Cl)ccc43)COc3ccc(cc32)C(=O)N=[S@]1(=O)Nc1ncnc2nn(C)cc12 [Example 34],25.4,0.088,
CO[C@H]1/C=C/C[C@H](C)C[S@@](=O)(NC(=O)c2cnn(C)c2)=NC(=O)c2ccc3c(c2)N(C[C@@H]2CC[C@H]21)C[C@]1(CO3)C[C@@H]2C[C@@H]2c2cc(Cl)ccc21 [Example 167],46.3,0.101,
COc1nn(C)cc1C(=O)N[S@@]1(=O)=NC(=O)c2ccc3c(c2)N(C[C@@H]2CC[C@H]2[C@@](O)(CCN2CCOCC2)/C=C/C[C@H](C)C1)C[C@@]1(CCCc2cc(Cl)ccc21)CO3 [Example 113],,0.132,35.4
CO[C@H]1/C=C/C[C@H](C)C[S@@](=O)(Nc2nc(C)nc3nn(C)cc23)=NC(=O)c2ccc3c(c2)N(C[C@@H]2CC[C@H]21)C[C@@]1(CCCc2cc(Cl)ccc21)CO3 [Example 12],38.7,0.129,
COc1nn(C)cc1C(=O)N[S@@]1(=O)=NC(=O)c2ccc3c(c2)N(C[C@@H]2CC[C@H]2[C@@H](OC)/C=C/[C@H](OCCN2CCN(C)CC2)[C@H](C)C1)C[C@@]1(CCCc2cc(Cl)ccc21)CO3 [Example 82],53.6,0.041,
CO[C@H]1/C=C/C[C@H](C)C[S@@](=O)(NC(=O)NCC2CC2)=NC(=O)c2ccc3c(c2)N(C[C@@H]2CC[C@H]21)C[C@]1(CO3)C[C@@H]2C[C@@H]2c2cc(Cl)ccc21 [Example 165],369,0.18,
COc1nn(C)cc1C(=O)N[S@@]1(=O)=NC(=O)c2ccc3c(c2)N(C[C@@H]2CC[C@H]2[C@@H](OC)/C=C/[C@H](OCCN2CC(N(C)C)C2)[C@H](C)C1)C[C@@]1(CCCc2cc(Cl)ccc21)CO3 [Example 80],27.5,0.253,
COc1nn(C)cc1C(=O)N[S@@]1(=O)=NC(=O)c2ccc3c(c2)N(C[C@@H]2CC[C@H]2[C@@H](OC)C[C@@H]2[C@H](OC[C@@H]2C)[C@H](C)C1)C[C@@]1(CCCc2ccccc21)CO3 [Example 148],,0.426,1720
COc1nnc(NS2(=O)=NC(=O)c3ccc4c(c3)N(C[C@@H]3CC[C@H]3[C@@H](OC)/C=C/C[C@H](C)C2)C[C@@]2(CCCc3cc(Cl)ccc32)CO4)c2nn(C)cc12 (some centres unmarked) [Example 17],,2.39,4550
COc1nn(C)cc1C(=O)N[S@@]1(=O)=NC(=O)c2ccc3c(c2)N(C[C@@H]2CC[C@H]2/C=C/C=C\[C@H](C)C1)C[C@@]1(CCCc2cc(Cl)ccc21)CO3 [Example 131],546,0.087,
C[C@H]1C/C=C/[C@H](O)[C@@H]2CC[C@H]2CN2C[C@@]3(CCCc4cc(Cl)ccc43)COc3ccc(cc32)C(=O)N=[S@](=O)(Nc2nc(N)nc3nn(C)cc23)C1 [Example 32],18.5,0.057,
COc1nn(C)cc1C(=O)N[S@@]1(=O)=NC(=O)c2ccc3c(c2)N(C[C@@H]2CC[C@H]2[C@@H](OC)/C=C/[C@H](OCc2ccncc2)[C@H](C)C1)C[C@@]1(CCCc2cc(Cl)ccc21)CO3 [Example 84],90,0.099,
COc1nn(C)cc1C(=O)N[S@@]1(=O)=NC(=O)c2ccc3c(n2)N(C[C@@H]2CC[C@H]2[C@@H](OC)/C=C/C[C@H](C)C1)C[C@@]1(CCCc2cc(Cl)ccc21)CO3 [Example 191],,0.02,36.6
COc1nn(C)cc1C(=O)N[S@@]1(=O)=NC(=O)c2ccc3c(c2)N(C[C@@H]2CC[C@H]2[C@@H](OCCN2CC(OC)C2)/C=C/C[C@H](C)C1)C[C@@]1(CCCc2cc(Cl)ccc21)CO3 [Example 61],19.6,0.136,
COc1nn(C)cc1C(=O)N[S@@]1(=O)=NC(=O)c2ccc3c(c2)N(C[C@@H]2CC[C@H]2[C@@H]2/C=C/[C@@H](OCCCC(=O)O2)[C@H](C)C1)C[C@@]1(CCCc2cc(Cl)ccc21)CO3 [Example 157],,0.366,229
COc1nn(C)cc1C(=O)N[S@@]1(=O)=NC(=O)c2ccc3c(c2)N(C[C@@H]2CC[C@H]2[C@@H](OCCN2CCN(C4COC4)CC2)/C=C/C[C@H](C)C1)C[C@@]1(CCCc2cc(Cl)ccc21)CO3 [Example 60],19.2,0.07,
COc1nn(C)cc1C(=O)N[S@@]1(=O)=NC(=O)c2ccc3c(n2)N(C[C@@H]2CC[C@H]2[C@@H](OC)/C=C/[C@H](O)[C@H](C)C1)C[C@@]1(CCCc2cc(Cl)ccc21)CO3 (mixture of isomers) [Example 196],81.4,0.04,
C=CCO[C@H]1/C=C/C[C@H](C)C[S@@](=O)(NC(=O)c2cn(C)nc2OC)=NC(=O)c2ccc3c(c2)N(C[C@@H]2CC[C@H]21)C[C@@]1(CCCc2cc(Cl)ccc21)CO3 [Example 54],,0.092,103
COc1nn(C)cc1C(=O)N[S@@]1(=O)=NC(=O)c2ccc3c(c2)N(C[C@@H]2CC[C@H]2[C@@H](OC)C[C@@H]2[C@H](OC[C@H]2C)[C@H](C)C1)C[C@@]1(CCCc2ccccc21)CO3 [Example 147],,0.394,532
COc1nn(C)cc1C(=O)N[S@@]1(=O)=NC(=O)c2ccc3c(c2)N(C[C@@H]2CC[C@H]2[C@@](C)(OC)/C=C/C[C@H](C)C1)C[C@@]1(CCCc2cc(Cl)ccc21)CO3 [Example 95],3630,4.39,
CO[C@H]1/C=C/C[C@H](C)C[S@@](=O)(Nc2nc(Cl)nc3nn(C)cc23)=NC(=O)c2ccc3c(c2)N(C[C@@H]2CC[C@H]21)C[C@@]1(CCCc2cc(Cl)ccc21)CO3 [Example 9],170,0.11,
COc1nn(C)cc1C(=O)N[S@@]1(=O)=NC(=O)c2ccc3c(c2)N(C[C@@H]2CC[C@H]2[C@](O)(CCN2CCOCC2)/C=C/C[C@H](C)C1)C[C@@]1(CCCc2cc(Cl)ccc21)CO3 [Example 114],,0.319,51
CO[C@H]1/C=C/C[C@H](C)C[S@@](=O)(NC(=O)c2cc3n(c2)CCOC3)=NC(=O)c2ccc3c(n2)N(C[C@@H]2CC[C@H]21)C[C@@]1(CCCc2cc(Cl)ccc21)CO3 [Example 186],26.6,0.07,
CO[C@H]1/C=C/C[C@H](C)C[S@@](=O)(Nc2nc(N(C)C)nc3nn(C)cc23)=NC(=O)c2ccc3c(c2)N(C[C@@H]2CC[C@H]21)C[C@@]1(CCCc2cc(Cl)ccc21)CO3 [Example 19],37.8,0.066,
COc1nn(C)cc1C(=O)N[S@@]1(=O)=NC(=O)c2ccc3c(c2)N(C[C@@H]2CC[C@H]2[C@@H](OCCCN2CCOCC2)/C=C/C[C@H](C)C1)C[C@@]1(CCCc2cc(Cl)ccc21)CO3 [Example 53],,0.105,21.7
COc1nn(C)cc1C(=O)N[S@@]1(=O)=NC(=O)c2ccc3c(c2)N(C[C@@H]2CC[C@H]2[C@@H](OC)/C=C/[C@H](OCCN2CCN(C4COC4)CC2)[C@H](C)C1)C[C@@]1(CCCc2cc(Cl)ccc21)CO3 [Example 79],,0.062,42.9
COc1nn(C)cc1C(=O)N[S@@]1(=O)=NC(=O)c2ccc3c(c2F)N(C[C@@H]2CC[C@H]2[C@@H](OC)/C=C/C[C@H](C)C1)C[C@@]1(CCCc2cc(Cl)ccc21)CO3 [Example 161],33.8,0.089,

# Reference: patent publication US11667652B2, “MCL1 inhibitors” (Gilead Sciences, Inc., priority 2019, dated 2023)
